Measurements reported in US6838580B2, “Opioid derivative” (Teikoku Seiyaku Co., Ltd., priority 2002, dated 2005).

Experiments:
[1] = test system: SD Male rats; test: Analgesic effect, Randoll-Seritto hind limb pressure method, intracerebroventricular administration; type: in vivo; conditions: rat, i.c.v., 3 μg/animal
Text: (§1) SD Male rats, weighing 110 to 130 g, were used. One group consisted of five rats. The analgesic effects were examined by a Randoll-Seritto method. […] The threshold was expressed in mm Hg. During the measurement, the upper limit of the pressure applied to a hind limb was 100 mm Hg in order to avoid damage of the tissues.
1) When performing intracerebroventricular administration (i.c.v.), a rat was fixed to a brain stereotactic fixing apparatus under slight ether anesthesia, the skin at a head was dissected, and an administration cannula was inserted into a place at a transverse of […] from a bregma position and a depth of 3.5 to 4.0 mm. The administration volume was 10 μl/animal. Observation of the analgesic action was performed before administration, and at 30 minutes, and 1, 2, 3, 4 and 5 hours after administration. Doses of both compounds were 0.1, 1 and 10 μg/animal. Separately, a group to which 5 mg/kg of naltrexone hydrochloride was administered subcutaneously immediately after compound of Ex.1 10 μg/animal i.c.v and a group to which 5 mg/kg of naltrexone hydrochloride was administered subcutaneously immediately after compound of Ex.4 10 μg/animal i.c.v. was made. In addition, as morphine hydrochloride at a dose of 3 μg/animal i.c.v. group was used as a positive control group and a physiological saline 10 μl/animal i.c.v. group as a control group was made, respectively.
(§2) In order to perform a significant difference test between respective administration groups and control groups, and between values at respective times before administration and after administration, a Dunnet multiple comparative test method was used. In the statistical processing for performing a significant difference test between morphine hydrochloride administration groups and control groups, Student t-test was used. For performing a significant difference test between values at respective times before administration and after administration in morphine hydrochloride administration groups, a Dunnet multiple comparative test method was used. A significant level was at 5 or lower % risk rate (two-tailed test).

[2] = test system: SD Male rats; test: Analgesic effect, Randoll-Seritto hind limb pressure method, intravenous administration; type: in vivo; conditions: rat, i.v., 5 mg/kg
Experimental: as §1
(§3) 2) When administered intravenously (i.v.), a volume of 2 ml/kg weight was administered to a tail vein and, when administered subcutaneously (s.c.), a volume of 2 ml/kg weight was subcutaneously administered to the back. In the case of intravenous administration, a 1 mg/kg, 3 mg/kg or 10 mg/kg compound of Ex.1 administration group, a 1 mg/kg, 3 mg/kg or 10 mg/kg compound of Ex.4 administration group, a 2 ml/kg physiological saline administration group and a 5 mg/kg morphine hydrochloride administration group were made, respectively. In the case of subcutaneous administration, a 10 mg/kg, 30 mg/kg or 100 mg/kg compound of Ex.1 administration group, a 10 mg/kg, 30 mg/kg or 100 mg/kg compound of Ex.4 administration group, a 2 ml/kg physiological saline administration group and a 5 mg/kg morphine hydrochloride administration group were made, respectively. Observation of the analgesic action was performed 15 minutes, 30 minutes, 1 hour and 2 hours after administration in the case of intravenous administration, 30 minutes, 1 hour, 2 hours and 3 hours after administration in the case of subcutaneous administration, respectively.
as §2

[3] = test system: SD Male rats; test: Analgesic effect, Randoll-Seritto hind limb pressure method, subcutaneous administration; type: in vivo; conditions: rat, s.c., 5 mg/kg
Experimental: as §1, §3, §2

[4] = target: T1, δ-opioid receptor (Rattus norvegicus, UniProt P33533); test: Competitive receptor binding assay, synaptic membrane fraction, [3H]DPDPE; conditions: rat brain synaptic membrane, read-out: Affinity of receptor (Ki, nM) δ
T1 construct: synaptic membrane fraction obtained from the rat brain tissue; from tissue; host or cells: Sprague-Dawley rat brain without cerebellum, synaptic membrane (P2) fraction
Experimental: (§4) Regarding the opioid peptide derivatives synthesized in Examples and Reference Examples, the μ- and δ-opioid receptor affinities were obtained by a competitive receptor assay using the synaptic membrane fraction obtained from the rat brain tissue according to the known methods. That is, Sprague-Dawley rats having an average weight of 150-180 g were killed by decapitation, the brain tissue from which cerebellum had been removed was homogenized in 0.32M sucrose and 1 mM HEPES (pH 7.5) containing 50 μg/ml soybean trypsin inhibitor, fractionated and centrifuged to obtain the synaptic membrane fraction (P2 fraction), which was pre-incubated in 50 mM HEPES (pH 7.5) containing 100 mM NaCl, 0.1 mM GDP and soybean trypsin inhibitor to remove endogenous ligands from the P2 fraction.
(§5) A competitive receptor binding assay (Radiolabeled receptor assay: RRA) based on an exchange reaction between a radioactive ligand for the synaptic membrane fraction and a peptide derivative to be tested was performed by using tritium-labeled [^3H]DAGO which is a μ-opioid receptor agonist and tritium-labeled [^3H]DPDPE which has the high δ-opioid receptor selectivity, and incubating an aliquot of the synaptic membrane with the peptide derivative to be tested for a period of time. Upon this, an exchange reaction between a ligand was performed under constant conditions, the radiation remaining in the synaptic membrane fraction was measured, and an amount of the ligand adsorbed onto the synaptic membrane fraction is calculated. By assuming that binding with a receptor occurs in competition between a radioactive ligand and an end ligand, the concentration (IC50) at which the maximum specific binding of the radioactive ligand is 50% inhibited was obtained, from which the affinity constant (Ki) was calculated by a method of Cheng et al. (Biochem. Pharmcol., 22, 3099(1973)).

[5] = target: T2, μ-opioid receptor (Rattus norvegicus, UniProt P33535); test: Competitive receptor binding assay, synaptic membrane fraction, [3H]DAGO; conditions: for Ki: rat brain synaptic membrane, [3H]DAGO, read-out: Affinity of receptor (Ki, nM) μ; for Selectivity δ/μ: ratio Ki δ / Ki μ
T2 construct: synaptic membrane fraction obtained from the rat brain tissue; from tissue; host or cells: Sprague-Dawley rat brain without cerebellum, synaptic membrane (P2) fraction
Experimental: as §4, §5

[6] = target: T3, δ-opioid receptor (Mus musculus, UniProt P32300); test: Mouse seminiferous tract (MVD) assay, inhibition of electrically stimulated constriction; type: cell-based; conditions: agonist activity, read-out: MVD (IC50 ± S.E.)
T3 construct: using mouse seminiferous tract in place of guinea pig ileum; from tissue; host or cells: mouse seminiferous tract (vas deferens, MVD), organ bath
T3 sequence (P32300 whole entry): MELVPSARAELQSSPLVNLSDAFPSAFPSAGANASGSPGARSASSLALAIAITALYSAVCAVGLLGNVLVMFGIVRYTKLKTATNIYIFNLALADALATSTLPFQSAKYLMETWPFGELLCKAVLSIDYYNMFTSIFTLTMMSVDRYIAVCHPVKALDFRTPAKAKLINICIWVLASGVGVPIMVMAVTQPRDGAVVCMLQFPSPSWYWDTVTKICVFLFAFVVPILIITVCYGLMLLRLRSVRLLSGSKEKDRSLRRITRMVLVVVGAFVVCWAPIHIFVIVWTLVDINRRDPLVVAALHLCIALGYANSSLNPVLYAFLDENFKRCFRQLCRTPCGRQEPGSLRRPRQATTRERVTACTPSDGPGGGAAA

T2 sequence (P33535 whole entry): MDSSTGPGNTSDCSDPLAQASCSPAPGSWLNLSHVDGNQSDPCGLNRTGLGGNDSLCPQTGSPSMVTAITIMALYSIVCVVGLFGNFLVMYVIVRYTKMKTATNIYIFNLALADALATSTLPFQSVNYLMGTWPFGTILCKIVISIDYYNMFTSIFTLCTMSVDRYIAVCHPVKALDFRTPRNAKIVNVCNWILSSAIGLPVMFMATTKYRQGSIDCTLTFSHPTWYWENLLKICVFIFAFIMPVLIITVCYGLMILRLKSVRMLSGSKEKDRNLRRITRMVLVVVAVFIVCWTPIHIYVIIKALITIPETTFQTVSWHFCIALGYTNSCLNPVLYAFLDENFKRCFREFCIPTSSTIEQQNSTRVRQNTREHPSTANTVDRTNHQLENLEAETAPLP
T1 sequence (P33533 whole entry): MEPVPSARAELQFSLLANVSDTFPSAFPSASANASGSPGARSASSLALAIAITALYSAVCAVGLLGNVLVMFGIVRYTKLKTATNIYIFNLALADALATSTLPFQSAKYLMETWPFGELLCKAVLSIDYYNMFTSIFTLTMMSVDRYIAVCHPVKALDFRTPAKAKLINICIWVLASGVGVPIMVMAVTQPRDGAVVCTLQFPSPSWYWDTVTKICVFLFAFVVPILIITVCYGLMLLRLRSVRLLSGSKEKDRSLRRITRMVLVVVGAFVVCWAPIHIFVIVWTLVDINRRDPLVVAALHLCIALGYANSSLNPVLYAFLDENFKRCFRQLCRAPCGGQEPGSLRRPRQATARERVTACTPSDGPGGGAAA

Compound | Ki [4] [nM] | Ki [5] [nM] | Selectivity δ/μ [5] | IC50 [6] [nM] | other results
CN1CC[C@]23c4c5ccc(O)c4O[C@H]2[C@@H](O)C=C[C@H]3[C@H]1C5.Cl [Morphine, morphine hydrochloride, reference compound] |  |  |  |  | Change in escape reaction threshold / analgesic effect, in words [1]: significant increase in the threshold was recognized 30 minutes, 1 hour and 3 hours after administration; Threshold (mmHg) ([1]; 0.5 hr): 59 ± 4 mmHg; Threshold (mmHg) ([1]; 1 hr): 59 ± 3 mmHg; Threshold (mmHg) ([1]; 2 hr): 52 ± 3 mmHg; Threshold (mmHg) ([1]; 3 hr): 52 ± 3 mmHg; Threshold (mmHg) ([1]; 4 hr): 49 ± 2 mmHg; Threshold (mmHg) ([1]; 5 hr): 51 ± 2 mmHg; Threshold (mmHg) ([1]; before administration): 46 ± 1 mmHg; Change in escape reaction threshold / analgesic effect, in words [2]: significant increase in the escape reaction threshold was recognized 15 minutes, 30 minutes and 1 hour after administration; Threshold (mmHg) ([2]; 0.25 hr): 83 ± 6^##,$$ mmHg; Threshold (mmHg) ([2]; 0.5 hr): 79 ± 7^##,$$ mmHg; Threshold (mmHg) ([2]; 1 hr): 78 ± 6^##,$$ mmHg; Threshold (mmHg) ([2]; 2 hr): 65 ± 7 mmHg; Threshold (mmHg) ([2]; before administration): 49 ± 2 mmHg; Change in escape reaction threshold / analgesic effect, in words [3]: significant increase was recognized 30 minutes, 1 hour and 2 hours after administration; Threshold (mmHg) ([3]; 0.5 hr): 87 ± 2^##,$$ mmHg; Threshold (mmHg) ([3]; 1 hr): 85 ± 6^##,$$ mmHg; Threshold (mmHg) ([3]; 2 hr): 71 ± 7^#,$ mmHg; Threshold (mmHg) ([3]; 3 hr): 61 ± 7 mmHg; Threshold (mmHg) ([3]; before administration): 48 ± 2 mmHg
Cc1cc(O)cc(C)c1C[C@H](N)C(=O)NCCCCNC(=O)[C@@H](N)Cc1ccc(O)cc1 [Ex.3, 1-(Dmt-amino)-4-Tyr-aminobutane.2HCl] | 133 ± 18 | 0.38 ± 0.02 | 349 | > 10000 | 
N[C@@H](Cc1ccccc1)C(=O)NCCCCNC(=O)[C@@H](N)Cc1ccccc1 [Ref.ex.1, 1,4-Bis(Phe-amino)butane.2HCl, reference compound] | 46200 | 1530 | 30 |  | 
N[C@@H](Cc1ccc(O)cc1)C(=O)NCCCCCCNC(=O)[C@@H](N)Cc1ccc(O)cc1.O=C(O)C(F)(F)F.O=C(O)C(F)(F)F [Ref.ex.3, 1,6-Bis(Tyr-amino)hexane.2TFA, reference compound] | 21900 | 410 ± 85 | 53 |  | 
Cc1cc(O)cc(C)c1C[C@H](N)C(=O)NCCNC(=O)[C@@H](N)Cc1c(C)cc(O)cc1C [Ex.5, 1,2-Bis(Dmt-amino)ethane.2TFA] | 116 ± 10.6 | 1.43 ± 0.01 | 81 | > 10000 | 
Cc1cc(O)cc(C)c1C[C@H](N)C(=O)NCCCCNC(=O)[C@@H](N)Cc1ccccc1 [Ex.2, 1-Dmt-amino-4-Phe-aminobutane.2HCl] | 61 ± 5.7 | 0.52 ± 0.089 | 117 | > 10000 | 
N[C@@H](Cc1ccc(O)cc1)C(=O)NCCCCCCCCNC(=O)[C@@H](N)Cc1ccc(O)cc1 [Ref.ex.5, 1,8-Bis(Tyr-amino)octane.2TFA, reference compound] | 6150 | 399 ± 40.5 |  |  | 
N[C@@H](Cc1ccc(O)cc1)C(=O)NCCNC(=O)[C@@H](N)Cc1ccc(O)cc1 [Ref.ex.4, 1,2-Bis(Tyr-amino)ethane.2TFA, reference compound] | 8290 | 648 ± 95 | 13 |  | 
Cc1cc(O)cc(C)c1C[C@H](N)C(=O)NCCCCCCCCNC(=O)[C@@H](N)Cc1c(C)cc(O)cc1C [Ex.6, 1,8-Bis(Dmt-amino)octane.2TFA] | 14.8 ± 3 | 0.19 ± 0.024 | 78 | > 10000 | 
N[C@@H](Cc1ccc(O)cc1)C(=O)NCCCCNC(=O)[C@@H](N)Cc1ccc(O)cc1 [Ref.ex.2, 1,4-Bis(Tyr-amino)butane.2HCl, reference compound] | 6500 | 309 ± 104 | 21 |  | 
